Here are results for 34 compounds from patent publication EP2599480A1 (priority 2011, dated 2013).

Like-named read-outs stand apart in the source and are kept apart here.

Data set [1] is described as follows: in vitro. Conditions: dog; for CC50 at 72 h: mdck.
Data set [2] deals with NA of influenza virus A/PR/8/34 (Influenza A virus, UniProt P03468). Kind of data set: biochemical. Also on record: species or system H1N1 influenza virus A/Puerto Rico/8/34.
For data set [3], the system named is NA of influenza virus A/Jena/5555/09. The data set is classed as biochemical, clinical H1N1 isolate A/Jena/5555/09.
The subject of data set [4] is NA of influenza virus A/Jena/5528/09. The data set is classed as biochemical, clinical H1N1 isolate A/Jena/5528/09.

Chain of NA of influenza virus A/PR/8/34 (P03468 whole entry, looked up): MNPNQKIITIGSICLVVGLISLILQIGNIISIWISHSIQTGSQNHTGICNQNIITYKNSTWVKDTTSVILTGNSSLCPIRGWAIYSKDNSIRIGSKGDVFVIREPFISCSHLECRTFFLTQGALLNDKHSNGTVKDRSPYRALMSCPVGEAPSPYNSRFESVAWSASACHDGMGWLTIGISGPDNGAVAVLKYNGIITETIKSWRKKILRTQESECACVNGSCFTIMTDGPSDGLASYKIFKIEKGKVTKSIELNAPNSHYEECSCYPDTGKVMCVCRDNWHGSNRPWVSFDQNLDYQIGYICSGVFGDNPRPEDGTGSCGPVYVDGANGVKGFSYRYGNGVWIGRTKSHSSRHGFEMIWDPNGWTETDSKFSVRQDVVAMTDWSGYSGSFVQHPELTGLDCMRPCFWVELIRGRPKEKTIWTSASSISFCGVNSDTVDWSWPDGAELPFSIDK

In the case of `Cc1ccc(S(=O)(=O)Oc2cc(S(=O)(=O)O)cc3cc(S(=O)(=O)O)cc(N)c23)cc1` [NCI compound 16168], in data set [1], the CC50 is > 100 µM. Moreover, the IC50 in data set [2] (IC50 for A/PR/8/34) was 5.91 µM.
For the compound `O=C(Nc1cc(S(=O)(=O)O)cc2cc(S(=O)(=O)O)cc(O)c12)c1ccccc1` [NCI compound 16169], the CC50 in data set [1] was > 100 µM.
As to `Nc1c(N=Nc2ccc(S(=O)(=O)Nc3ccccn3)cc2)cc(S(=O)(=O)O)c2ccccc12` [NCI compound 30456], the IC50 in data set [2] was < 0.12 µM.
With `Nc1c(N=Nc2ccc(S(=O)(=O)Nc3nccs3)cc2)cc(S(=O)(=O)O)c2ccccc12` [NCI compound 31348], in data set [1], the CC50 at 72 h is > 100 µM.
In the case of `O=C(Nc1cc(S(=O)(=O)O)cc2cc(S(=O)(=O)O)ccc12)c1ccccc1` [NCI compound 37172], in data set [1], the CC50 was > 100 µM.
On the same count and under the same terms, the result for `Nc1ccc(C(=O)Nc2cc(S(=O)(=O)O)cc3cccc(O)c23)cc1` [NCI compound 37176] reads > 100 µM; that for `Nc1ccc(C(=O)Nc2cc(S(=O)(=O)O)cc3cc(S(=O)(=O)O)ccc23)cc1` [NCI compound 37180], > 100 µM.
As to `CN(C)c1ccc(C=Nc2cc(S(=O)(=O)O)cc3cc(S(=O)(=O)O)cc(O)c23)cc1` [NCI compound 37200], in data set [1], the CC50 at 72 h is > 100 µM. For the same compound, the IC50 in data set [3] worked out at 0.94 µM; in data set [4], 1.18 µM.
For `CCOc1ccc(N=Nc2ccc(C=Nc3ccc4c(O)cc(S(=O)(=O)O)cc4c3)cc2)cc1` [NCI compound 37220], the CC50 at 72 h in data set [1] is > 100 µM. In addition, in data set [2] (IC50 for A/PR/8/34), the IC50 turned out to be 0.42 µM.
For the compound `Nc1ccc(C(=O)Nc2ccc(S(=O)(=O)O)c3cccc(O)c23)cc1` [NCI compound 37609], the CC50 at 72 h in data set [1] was > 100 µM.
Same read-out and setting: for `O=[N+]([O-])c1ccc(N=Nc2c(O)ccc3cc(S(=O)(=O)O)ccc23)cc1` [NCI compound 45538] the value was > 100 µM; for `O=[N+]([O-])c1ccc(N=Nc2c(O)ccc3cc(S(=O)(=O)O)cc(S(=O)(=O)O)c23)cc1` [NCI compound 45539], > 100 µM; for `O=[N+]([O-])c1ccc(N=Nc2c(O)c(S(=O)(=O)O)cc3cc(S(=O)(=O)O)ccc23)cc1` [NCI compound 45540], > 100 µM.
Same read-out and setting: the result for `O=[N+]([O-])c1cccc(N=Nc2c(O)c(S(=O)(=O)O)cc3cc(S(=O)(=O)O)ccc23)c1` [NCI compound 45541] reads > 100 µM.
In the case of `O=S(=O)(O)c1cc2cccc(S(=O)(=O)O)c2c(O)c1N=Nc1ccccc1` [NCI compound 45549], the CC50 at 72 h in data set [1] was > 100 µM. In data set [2] (IC50 for A/PR/8/34), this compound gave an IC50 of 4.85 µM.
`O=S(=O)(O)c1ccc2c(N=Nc3ccc(N=Nc4ccccc4)cc3)c(O)ccc2c1` [NCI compound 65545]: in data set [1], the CC50 at 72 h is > 100 µM. The IC50 in data set [3] stood at 0.24 µM; in data set [4] it was 0.11 µM.
In the case of `Cc1cc(S(=O)(=O)O)ccc1N=Nc1ccc(N=Nc2c(O)ccc3ccccc23)c(C)c1` [NCI compound 66221], the IC50 in data set [2] (IC50 for A/PR/8/34) was 0.29 µM.
On to `CC(=O)Nc1cc(S(=O)(=O)O)cc2cc(S(=O)(=O)O)cc(O)c12` [NCI compound 74489], for which the CC50 at 72 h in data set [1] was > 100 µM.
Turning to `O=S(=O)(O)c1ccc2cc(N=Nc3cc(S(=O)(=O)O)c4cccnc4c3O)ccc2c1` [NCI compound 87877], in data set [1], the CC50 at 72 h was > 100 µM. Besides, the results for the IC50 in data set [3] and in data set [4] were 1.55 µM and 1.74 µM, respectively.
As for `CCCCCC(=O)Nc1cc(S(=O)(=O)O)cc2cc(S(=O)(=O)O)cc(O)c12` [NCI compound 97290], the CC50 at 72 h in data set [1] was > 100 µM.
With `Cc1nnc(NS(=O)(=O)c2ccc(N=Nc3c(O)c(C(=O)O)cc4ccccc34)cc2)s1` [NCI compound 134131], the CC50 at 72 h in data set [1] is > 100 µM.
Regarding `CC1NOC(NS(=O)(=O)c2ccc(N=Nc3c(O)c(C(=O)O)cc4ccccc34)cc2)C1C` (centres unmarked) [NCI compound 134132], the IC50 in data set [2] (read-out: IC50 for A/PR/8/34) turned out to be 0.64 µM.
On to `Cc1cccc(NS(=O)(=O)c2ccc(N=Nc3c(O)c(C(=O)O)cc4ccccc34)cc2)n1` [NCI compound 134133], for which the IC50 in data set [2] is < 0.12 µM.
As for `O=C(O)c1cc2ccccc2c(N=Nc2ccc(S(=O)(=O)Nc3ccccn3)cc2)c1O` [NCI compound 134134], in data set [2] (IC50 for A/PR/8/34), the IC50 is 0.45 µM.
Consider `O=C(O)c1cc2ccccc2c(N=Nc2ccc(S(=O)(=O)Nc3nccs3)cc2)c1O` [NCI compound 134135], for which the CC50 at 72 h in data set [1] is > 100 µM. Besides, the IC50 came out at 0.31 µM in data set [3] and 0.24 µM in data set [4].
Regarding `O=C(O)c1cc2ccccc2c(N=Nc2ccc(S(=O)(=O)Nc3ncccn3)cc2)c1O` [NCI compound 134136], the CC50 at 72 h in data set [1] was > 100 µM.
As for `O=C(O)c1cc2ccccc2c(N=Nc2ccc(S(=O)(=O)O)cc2)c1O` [NCI compound 134138], in data set [1], the CC50 at 72 h was > 100 µM. In addition, the IC50 in data set [3] was found to be 2.9 µM; in data set [4], 3.06 µM.
For `N=C(N)NS(=O)(=O)c1ccc(N=Nc2c(O)c(C(=O)O)cc3ccccc23)cc1` [NCI compound 134139], in data set [1], the CC50 at 72 h is > 100 µM.
Take `Cc1cc(NS(=O)(=O)c2ccc(N=Nc3c(O)c(C(=O)O)cc4ccccc34)cc2)nc(C)n1` [NCI compound 134140]: the CC50 at 72 h in data set [1] was > 100 µM.
The same measure, in the same setting: the result for `Cc1ccc(N=Nc2c(O)c(C(=O)O)cc3ccccc23)cc1C` [NCI compound 134141] reads > 100 µM; that for `O=C(O)c1c(O)c(N=Nc2ccc(S(=O)(=O)Nc3ccccn3)cc2)cc2ccccc12` [NCI compound 134145], > 100 µM.
Still for that read-out and setting: for `Nc1cc(S(=O)(=O)O)cc2cc(S(=O)(=O)O)c(N=Nc3cc(S(=O)(=O)O)cc4cc(S(=O)(=O)O)cc(O)c34)c(O)c12` [NCI compound 162530] the value was > 100 µM; for `O=C(O)c1cc(C(=O)CCCC(=O)c2cc(C(=O)O)c(O)c3ccccc23)c2ccccc2c1O` [NCI compound 292216], > 100 µM.
On the same count and under the same terms, for `Cc1ccc(Nc2nnc(CSc3ccc(Cl)cc3)s2)c(S(=O)(=O)O)c1` [NCI compound 369693] the value was > 100 µM.
